Reference: patent US20250179083A1, “TRICYCLIC TRIAZOLO COMPOUNDS AS DGK INHIBITORS” (Incyte Corporation, priority 2023, published 2025)

What was measured:
DGKα = target: T1, DGKα (Homo sapiens, UniProt P23743); assay: In vitro DGKα inhibition assay (ADP-Glo); type: biochemical; conditions: His-tagged human recombinant DGKα 0.1 nM, 50 μM ATP, 20 μM DLG, 90 minute incubation
T1 construct: His; purchased Signal Chem D21-10BH
Procedure: (§1) The DGKα and DGKζ biochemical reactions were performed using His-tagged human recombinant enzymes (Signal Chem, DGKα, #D21-10BH; DGKζ, #D30-10H)) and DLG (Dilauroyl-sn-glycerol) lipid substrate (Signal Chem, #D430-59). ADP-Glo assay was performed using ADP-Glo™ kinase Assay kit (Promega, #V9104). The reactions were carried out in assay buffer containing 40 mM Tris, pH 7.5, 0.1% CHAPS, 0.1% Prionex, 40 mM NaCl, 5 mM MgCl2, 1 mM CaCl2, and 1 mM DTT. DGKα reactions contained 0.1 nM DGKα, 50 μM ATP, and 20 μM DLG. And DGKζ reactions contained 0.4 nM DGKζ, 30 μM ATP, and 20 μM DLG.
(§2) Compounds were added with top concentration of 2 mM with 11 point, 3-fold dilution series. Enzyme solution (contains 2×DGK enzyme concentration in 1× assay buffer) was added to the plate in 2 μL/well volume, followed by 2 μL/well of substrate solution (contains 2× concentration of ATP and DLG substrate in 1× assay buffer). Plates were then centrifuged for 1 min at 1200 RPM and sealed or lidded. For 4 μL reaction volume, test compounds were therefore diluted 100× to final top concentration of 20 μM. After 90 minute incubation, reactions were quenched by addition of 2 μL/well Promega ADP-Glo Reagent, followed by centrifugation and lidding. After 60 min incubation, 2 μL/well Promega Kinase Detection Reagent was added, plates centrifuged, and incubated for 30 min. Plates were then read using Luminescence method on BMG PHERAstar FSX plate reader. Percent inhibition was calculated and IC50s were determined using 4-parameter fit in Genedata Screener. Labcyte Echo acoustic dispenser was used for compound addition, and Formulatrix Tempest liquid handler was used for all reagent dispenses.

DGKζ = target: T2, DGKζ (Homo sapiens, UniProt Q13574); assay: In vitro DGKζ inhibition assay (ADP-Glo); type: biochemical; conditions: His-tagged human recombinant DGKζ 0.4 nM, 30 μM ATP, 20 μM DLG, 90 minute incubation
T2 construct: His; purchased Signal Chem D30-10H
T2 sequence (Q13574 whole entry): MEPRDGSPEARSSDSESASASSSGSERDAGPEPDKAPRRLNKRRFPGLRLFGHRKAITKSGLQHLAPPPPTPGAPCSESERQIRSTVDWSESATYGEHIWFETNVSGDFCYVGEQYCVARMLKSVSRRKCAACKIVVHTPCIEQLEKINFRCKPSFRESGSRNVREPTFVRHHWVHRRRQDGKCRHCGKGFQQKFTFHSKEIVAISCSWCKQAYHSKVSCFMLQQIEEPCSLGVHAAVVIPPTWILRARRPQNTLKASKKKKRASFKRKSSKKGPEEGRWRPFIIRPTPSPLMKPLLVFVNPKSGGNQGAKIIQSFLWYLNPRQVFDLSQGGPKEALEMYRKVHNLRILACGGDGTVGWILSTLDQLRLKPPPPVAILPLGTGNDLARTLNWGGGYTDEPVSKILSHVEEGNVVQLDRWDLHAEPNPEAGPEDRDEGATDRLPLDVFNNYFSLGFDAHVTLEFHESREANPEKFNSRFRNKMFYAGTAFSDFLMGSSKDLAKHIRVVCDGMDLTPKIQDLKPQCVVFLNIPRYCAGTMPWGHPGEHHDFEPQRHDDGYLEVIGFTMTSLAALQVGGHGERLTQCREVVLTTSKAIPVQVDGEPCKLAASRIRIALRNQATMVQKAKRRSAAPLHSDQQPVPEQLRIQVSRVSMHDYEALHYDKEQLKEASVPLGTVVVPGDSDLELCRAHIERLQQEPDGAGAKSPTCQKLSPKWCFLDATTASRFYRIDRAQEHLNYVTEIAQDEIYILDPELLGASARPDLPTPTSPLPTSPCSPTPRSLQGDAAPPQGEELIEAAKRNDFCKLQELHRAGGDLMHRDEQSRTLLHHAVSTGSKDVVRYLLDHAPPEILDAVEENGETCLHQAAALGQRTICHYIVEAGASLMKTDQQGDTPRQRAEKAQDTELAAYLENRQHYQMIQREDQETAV
Procedure: as §1, §2

T1 sequence (P23743 whole entry): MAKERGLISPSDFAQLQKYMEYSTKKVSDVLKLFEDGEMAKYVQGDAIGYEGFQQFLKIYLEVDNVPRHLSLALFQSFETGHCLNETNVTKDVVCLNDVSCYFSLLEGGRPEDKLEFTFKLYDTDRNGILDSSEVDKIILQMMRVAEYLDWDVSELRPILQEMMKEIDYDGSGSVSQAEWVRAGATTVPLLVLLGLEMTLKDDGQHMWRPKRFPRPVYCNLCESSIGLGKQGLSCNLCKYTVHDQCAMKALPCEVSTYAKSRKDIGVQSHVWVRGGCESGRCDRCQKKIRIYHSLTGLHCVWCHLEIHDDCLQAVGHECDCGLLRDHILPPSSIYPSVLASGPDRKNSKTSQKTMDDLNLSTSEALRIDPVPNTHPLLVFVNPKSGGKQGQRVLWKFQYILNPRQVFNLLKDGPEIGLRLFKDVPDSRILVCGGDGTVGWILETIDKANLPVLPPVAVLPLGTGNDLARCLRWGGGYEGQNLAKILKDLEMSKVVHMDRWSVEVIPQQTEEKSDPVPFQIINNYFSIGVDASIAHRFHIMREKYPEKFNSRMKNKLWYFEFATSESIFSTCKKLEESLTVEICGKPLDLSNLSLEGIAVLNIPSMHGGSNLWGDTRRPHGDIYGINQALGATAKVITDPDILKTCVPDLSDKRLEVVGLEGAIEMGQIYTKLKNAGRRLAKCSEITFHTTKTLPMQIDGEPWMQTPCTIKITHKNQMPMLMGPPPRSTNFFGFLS

## Cc1nc2c(N3C[C@@H](C)N(C(c4cc(F)c(Cl)cc4F)C4CC(F)(F)C4)C[C@@H]3C)nc3nncn3c2n1C[C@@H]1CCCO1 (stereo partly drawn) [Example 79, 4-((2S,5R)-4-((4-Chloro-2,5-difluorophenyl)(3,3-difluorocyclobutyl)methyl)-2,5-dimethylpiperazin-1-yl)-2-methyl-1-(((S)-tetrahydrofuran-2-yl)methyl)-1H-[1,2,4]triazolo[3,4-b]purine]
DGKα
  IC50: < 20 nM
DGKζ
  IC50: < 20 nM

## C[C@@H]1CN(c2nc3nncn3c3c2ncn3C[C@@H]2CCCO2)[C@@H](C)CN1C(c1ccc(Cl)cn1)c1ccc(Cl)cn1 [Example 20, 4-((2S,5R)-4-(Bis(5-chloropyridin-2-yl)methyl)-2,5-dimethylpiperazin-1-yl)-1-(((S)-tetrahydrofuran-2-yl)methyl)-1H-[1,2,4]triazolo[3,4-b]purine]
DGKα
  IC50: < 20 nM
DGKζ
  IC50: < 20 nM

## CC[C@H](c1ccc(C(F)(F)F)cc1)N1C[C@H](C)N(c2nc3nncn3c3c2nc(C)n3C[C@@H]2CCCO2)C[C@H]1C [Example 90, 4-((2S,5R)-2,5-dimethyl-4-((R)-1-(4-(trifluoromethyl)phenyl)propyl)piperazin-1-yl)-2-methyl-1-(((S)-tetrahydrofuran-2-yl)methyl)-1H-[1,2,4]triazolo[3,4-b]purine]
DGKα
  IC50: < 20 nM
DGKζ
  IC50: < 20 nM

## Cc1nc2c(N3C[C@@H](C)N(C(c4ccc(C(F)F)cc4F)C4CC(F)(F)C4)C[C@@H]3C)nc3nncn3c2n1C[C@@H]1CCCO1 (stereo partly drawn) [Example 3, 4-((2S,5R)-4-((3,3-Difluorocyclobutyl)(4-(difluoromethyl)-2-fluorophenyl)methyl)-2,5-dimethylpiperazin-1-yl)-2-methyl-1-(((S)-tetrahydrofuran-2-yl)methyl)-1H-[1,2,4]triazolo[3,4-b]purine]
DGKα
  IC50: < 20 nM
DGKζ
  IC50: < 20 nM

## C[C@@H]1CN(c2cc3nncn3c3c2ncn3C[C@@H]2CCCO2)[C@@H](C)CN1C(c1ccc(Cl)cc1)C1CC(F)(F)C1 (single isomer, unassigned) [Example 61]
DGKα
  IC50: < 20 nM
DGKζ
  IC50: < 20 nM

## Cc1nc2c(N3C[C@@H](C)N([C@H](c4ccc(Cl)cc4)C(C)C)C[C@@H]3C)cc3nncn3c2n1C[C@@H]1CCCO1 [Example 65, 4-((2S,5R)-4-((S)-1-(4-Chlorophenyl)-2-methylpropyl)-2,5-dimethylpiperazin-1-yl)-2-methyl-1-(((S)-tetrahydrofuran-2-yl)methyl)-1H-imidazo[4,5-e][1,2,4]triazolo[4,3-a]pyridine]
DGKα
  IC50: < 20 nM
DGKζ
  IC50: < 20 nM

## CC[C@@H]1CN(c2cc3nncn3c3c2nc(C)n3C[C@@H]2CCCO2)[C@@H](C)CN1C(c1ccc(Cl)cc1)C1CC(F)(F)C1 (single isomer, unassigned) [Example 52]
DGKα
  IC50: < 20 nM
DGKζ
  IC50: < 20 nM

## Cc1nc2c(N3C[C@@H](C)N(Cc4ccc(Cl)c(Cl)c4)C[C@@H]3C)nc3nncn3c2n1C[C@@H]1CCCO1 [Example 72, 4-((2S,5R)-4-(3,4-Dichlorobenzyl)-2,5-dimethylpiperazin-1-yl)-2-methyl-1-(((S)-tetrahydrofuran-2-yl)methyl)-1H-[1,2,4]triazolo[3,4-b]purine]
DGKα
  IC50: < 20 nM
DGKζ
  IC50: < 20 nM

## CC[C@@H](c1ccc(Cl)cc1)N1C[C@H](C)N(c2nc3nncn3c3c2nc(C)n3C[C@@H]2CCCO2)C[C@H]1C [Example 85, 4-((2S,5R)-4-((S)-1-(4-Chlorophenyl)propyl)-2,5-dimethylpiperazin-1-yl)-2-methyl-1-(((S)-tetrahydrofuran-2-yl)methyl)-1H-[1,2,4]triazolo[3,4-b]purine]
DGKα
  IC50: < 20 nM
DGKζ
  IC50: < 20 nM

## C[C@@H]1CN(c2nc3nncn3c3c2ncn3C[C@@H]2CCCO2)[C@@H](C)CN1Cc1ccc(Cl)cc1F [Example 48, 4-((2S,5R)-4-(4-Chloro-2-fluorobenzyl)-2,5-dimethylpiperazin-1-yl)-1-(((S)-tetrahydrofuran-2-yl)methyl)-1H-[1,2,4]triazolo[3,4-b]purine]
DGKα
  IC50: < 20 nM
DGKζ
  IC50: < 20 nM

## Cc1nc2c(N3C[C@@H](C)N([C@H](c4ccc(Br)cc4F)C(C)C)C[C@@H]3C)nc3nncn3c2n1C[C@@H]1CCCO1 [Example 26, 4-((2S,5R)-4-((S)-1-(4-Bromo-2-fluorophenyl)-2-methylpropyl)-2,5-dimethylpiperazin-1-yl)-2-methyl-1-(((S)-tetrahydrofuran-2-yl)methyl)-1H-[1,2,4]triazolo[3,4-b]purine]
DGKα
  IC50: < 20 nM
DGKζ
  IC50: < 20 nM

## CC(C)CC(c1ccc(Cl)cc1)N1C[C@H](C)N(c2nc3nncn3c3c2ncn3C[C@@H]2CCCO2)C[C@H]1C (single isomer, unassigned) [Example 9]
DGKα
  IC50: < 20 nM
DGKζ
  IC50: < 20 nM

## Cc1nc2c(N3C[C@@H](C)N([C@H](c4ccc5cc(C(F)(F)F)ccc5n4)C(C)C)C[C@@H]3C)nc3nncn3c2n1C[C@@H]1CCCO1 [Example 63, 4-((2S,5R)-2,5-Dimethyl-4-((S)-2-methyl-1-(6-(trifluoromethyl)quinolin-2-yl)propyl)piperazin-1-yl)-2-methyl-1-(((S)-tetrahydrofuran-2-yl)methyl)-1H-[1,2,4]triazolo[3,4-b]purine]
DGKα
  IC50: < 20 nM
DGKζ
  IC50: < 20 nM

## Cc1nc2c(N3C[C@@H](C)N(C(c4ccc(C(F)(F)F)cc4F)C4CC(F)(F)C4)C[C@@H]3C)nc3nncn3c2n1C[C@@H]1CCCO1 (stereo partly drawn) [Example 4, 4-((2S,5R)-4-((3,3-Difluorocyclobutyl)(2-fluoro-4-(trifluoromethyl)phenyl)methyl)-2,5-dimethylpiperazin-1-yl)-2-methyl-1-(((S)-tetrahydrofuran-2-yl)methyl)-1H-[1,2,4]triazolo[3,4-b]purine]
DGKα
  IC50: < 20 nM
DGKζ
  IC50: < 20 nM

## CC(C)[C@@H](c1ccc2cc(C(F)(F)F)ccc2n1)N1C[C@H](C)N(c2nc3nncn3c3c2ncn3C[C@@H]2CCCO2)C[C@H]1C [Example 83, 4-((2S,5R)-2,5-Dimethyl-4-((S)-2-methyl-1-(6-(trifluoromethyl)quinolin-2-yl)propyl)piperazin-1-yl)-1-(((S)-tetrahydrofuran-2-yl)methyl)-1H-[1,2,4]triazolo[3,4-b]purine]
DGKα
  IC50: 20 to 200 nM
DGKζ
  IC50: < 20 nM

## Cc1nc2c(N3C[C@@H](C)N([C@H](c4ccc(Cl)cc4F)C(C)C)C[C@@H]3C)nc3nncn3c2n1C[C@@H]1CCCO1 [Example 28, 4-((2S,5R)-4-((S)-1-(4-Chloro-2-fluorophenyl)-2-methylpropyl)-2,5-dimethylpiperazin-1-yl)-2-methyl-1-(((S)-tetrahydrofuran-2-yl)methyl)-1H-[1,2,4]triazolo[3,4-b]purine]
DGKα
  IC50: < 20 nM
DGKζ
  IC50: < 20 nM

## C[C@@H]1CN(c2nc3nncn3c3c2ncn3C[C@@H]2CCCO2)[C@@H](C)CN1C(c1ccc(Cl)cc1)C1CC(F)(F)C1 (stereo partly drawn) [Example 32, 4-((2S,5R)-4-((4-Chlorophenyl)(3,3-difluorocyclobutyl)methyl)-2,5-dimethylpiperazin-1-yl)-1-(((S)-tetrahydrofuran-2-yl)methyl)-1H-[1,2,4]triazolo[3,4-b]purine]
DGKα
  IC50: < 20 nM
DGKζ
  IC50: < 20 nM

## C[C@@H]1CN(c2nc3nncn3c3c2ncn3C[C@@H]2CCCO2)[C@@H](C)CN1C(c1ccc(C(F)(F)F)cc1)[C@@H]1CC1(F)F (single isomer, unassigned) [Example 13]
DGKα
  IC50: < 20 nM
DGKζ
  IC50: < 20 nM
